According to US4419123A, “Herbicidal 4-trifluoromethyl-3'-carbon-substituted-4'-substituted diphenyl ethers” (Rohm and Haas Company, priority 1981, dated 1983):

Legend:
[1] = test system: wheat; assay: Crop tolerance (selective herbicidal activity), wheat; assay type: in vivo
[2] = Postemergence herbicidal activity (% control) against dicot weeds; conditions: post-emergence, 336 h; for activity at 2241.7 g/ha: read-out: Herbicidal activity (% control), postemergence, dicots, 2 lb./A., average, about two weeks after application; for activity at 4483.4 g/ha: read-out: Herbicidal activity (% control), postemergence, dicots, 4 lb./A., average, about two weeks after application
[3] = test system: snapbeans; assay: Crop tolerance (selective herbicidal activity), snapbeans; assay type: in vivo; conditions: preemergence applications
Experimental: (§1) The following test procedure is employed.
(§2) Following the general test procedure of Example 37, diphenyl ethers are evaluated for significant tolerance (as shown by 50% or less kill of the test crop at levels of application which give more than 50% kill of many or all of the weeds of Example 73) towards some or all of the following common agronomic crops (not all compounds tested against all crops): alfalfa, snapbeans, corn, cotton, cucumbers, peanuts, rape, rice, safflower, soybeans, tomatoes, and wheat.

[4] = test system: soybeans; assay: Crop tolerance (selective herbicidal activity), soybeans; assay type: in vivo; conditions: preemergence applications
[5] = Preemergence herbicidal activity (% control) against dicot weeds; conditions: pre-emergence, 336 h; for activity at 2241.7 g/ha: read-out: Herbicidal activity (% control), preemergence, dicots, 2 lb./A., average, about two weeks after application; for activity at 4483.4 g/ha: read-out: Herbicidal activity (% control), preemergence, dicots, 4 lb./A., average, about two weeks after application
[6] = test system: corn; assay: Crop tolerance (selective herbicidal activity), corn; assay type: in vivo; conditions: postemergence applications
[7] = Postemergence herbicidal activity (% control) against monocot weeds; assay type: in vivo; conditions: post-emergence, 336 h, average, about two weeks after application, read-out: Herbicidal activity (% control), postemergence, monocots; for activity at 2241.7 g/ha: 2 lb./A.; for activity at 4483.4 g/ha: 4 lb./A.
Text: (§3) barnyardgrass (Echinochloa crusgalli) crabgrass (Digitaria spp.) nutsedge (Cyperus esculentus)
(§4) At 2 and 4 pounds per acre:
(§5) **Bermudagrass (Cynodon dactylon)
(§6) *downy brome (Bromus tectorum) foxtail (Setaria faberii)
(§7) Johnsongrass (Sorghum halepense) […]
(§8) quackgrass (Agropyron repens)
(§9) *ryegrass (Lolium perenne)
(§10) *wild oats (Avena factua)
(§11) *yellow millet (Panicum miliaceum)
as §1

[8] = Preemergence herbicidal activity (% control) against monocot weeds; assay type: in vivo; conditions: pre-emergence, 336 h, average, about two weeks after application, read-out: Herbicidal activity (% control), preemergence, monocots; for activity at 2241.7 g/ha: 2 lb./A.; for activity at 4483.4 g/ha: 4 lb./A.
Text: as §3, §4, §5, §6, §7, §8, §9, §10, §11, §1

[9] = test system: peanuts; assay: Crop tolerance (selective herbicidal activity), peanuts; assay type: in vivo; conditions: preemergence applications
[10] = test system: cotton; assay: Crop tolerance (selective herbicidal activity), cotton; assay type: in vivo; conditions: preemergence applications
Experimental: as §1, §2

[11] = test system: rice; assay: Crop tolerance (selective herbicidal activity), rice; assay type: in vivo
[12] = test system: Dicots (bindweed, cocklebur, coffeeweed, curly dock, lambsquarters, morningglory, pigweed, ragweed, smartweed, tomato, velvetleaf, wild carrot, wild mustard); assay: Postemergence herbicidal activity (% control) against dicot weeds; conditions: average, about two weeks after application
[13] = test system: Dicots (bindweed, cocklebur, coffeeweed, curly dock, lambsquarters, morningglory, pigweed, ragweed, smartweed, tomato, velvetleaf, wild carrot, wild mustard); assay: Preemergence herbicidal activity (% control) against dicot weeds; conditions: average, about two weeks after application
[14] = test system: Monocots (barnyardgrass, Bermudagrass, crabgrass, downy brome, foxtail, Johnsongrass, nutsedge, quackgrass, ryegrass, wild oats, yellow millet); assay: Postemergence herbicidal activity (% control) against monocot weeds; assay type: in vivo; conditions: average, about two weeks after application
Text: as §3, §4, §5, §6, §7, §8, §9, §10, §11, §1

[15] = test system: Monocots (barnyardgrass, Bermudagrass, crabgrass, downy brome, foxtail, Johnsongrass, nutsedge, quackgrass, ryegrass, wild oats, yellow millet); assay: Preemergence herbicidal activity (% control) against monocot weeds; assay type: in vivo; conditions: average, about two weeks after application
Text: as §3, §4, §5, §6, §7, §8, §9, §10, §11, §1

Compound | activity at 2241.7 g/ha [2] [%] | activity at 4483.4 g/ha [2] [%] | Tolerance to soybeans [4] | activity at 2241.7 g/ha [5] [%] | activity at 4483.4 g/ha [5] [%] | activity at 2241.7 g/ha [7] [%] | activity at 4483.4 g/ha [7] [%] | activity at 2241.7 g/ha [8] [%] | activity at 4483.4 g/ha [8] [%] | other results
CCOC(=O)C(C)Oc1cc(Oc2ccc(C(F)(F)F)cc2Cl)ccc1[N+](=O)[O-] (stereo not drawn) [Example 26, 2-Chloro-α,α,α-trifluoro-p-tolyl-3-(1-carbethoxyethoxy)-4-nitrophenyl ether] | 100 | 100 | Tolerance (significant tolerance (as shown by 50% or less kill of the test crop at levels of application which give more than 50% kill of many or all of the weeds of Example 73)) | 99 | 100 | 93 | 99 | 75 | 98 | Tolerance to wheat ([1]; preemergence applications): Tolerance (significant tolerance (as shown by 50% or less kill of the test crop at levels of application which give more than 50% kill of many or all of the weeds of Example 73)); Tolerance to snapbeans [3]: Tolerance (significant tolerance (as shown by 50% or less kill of the test crop at levels of application which give more than 50% kill of many or all of the weeds of Example 73)); Tolerance to corn [6]: Tolerance (significant tolerance (as shown by 50% or less kill of the test crop at levels of application which give more than 50% kill of many or all of the weeds of Example 73))
C#CC(C)Oc1cc(Oc2ccc(C(F)(F)F)cc2Cl)ccc1[N+](=O)[O-] (stereo not shown) [Example 30] | 100 | 100 | Tolerance (significant tolerance (as shown by 50% or less kill of the test crop at levels of application which give more than 50% kill of many or all of the weeds of Example 73)) | 94 | 99 | 91 | 75 | 78 | 81 | Tolerance to wheat ([1]; postemergence applications): Tolerance (significant tolerance (as shown by 50% or less kill of the test crop at levels of application which give more than 50% kill of many or all of the weeds of Example 73)); Tolerance to peanuts [9]: Tolerance (significant tolerance (as shown by 50% or less kill of the test crop at levels of application which give more than 50% kill of many or all of the weeds of Example 73)); Tolerance to cotton [10]: Tolerance (significant tolerance (as shown by 50% or less kill of the test crop at levels of application which give more than 50% kill of many or all of the weeds of Example 73)); Tolerance to rice ([11]; postemergence applications or applications on transplanted rice): Tolerance (significant tolerance (as shown by 50% or less kill of the test crop at levels of application which give more than 50% kill of many or all of the weeds of Example 73)); Tolerance to rice ([11]; preemergence applications): Tolerance (significant tolerance (as shown by 50% or less kill of the test crop at levels of application which give more than 50% kill of many or all of the weeds of Example 73))
O=C([O-])c1cc(Oc2ccc(C(F)(F)F)cc2Cl)ccc1[N+](=O)[O-].[Na+] [Example 48A, Sodium 5-(2-Chloro-4-trifluoromethylphenoxy)-2-nitrobenzoate] |  |  |  |  |  |  |  |  |  | Herbicidal activity (% control), postemergence, dicots ([12]; 2 lb./A.): 98%; Herbicidal activity (% control), postemergence, dicots ([12]; 4 lb./A.): 100%; Herbicidal activity (% control), preemergence, dicots ([13]; 2 lb./A.): 84%; Herbicidal activity (% control), preemergence, dicots ([13]; 4 lb./A.): 98%; Herbicidal activity (% control), postemergence, monocots ([14]; 2 lb./A.): 86%; Herbicidal activity (% control), postemergence, monocots ([14]; 4 lb./A.): 92%; Herbicidal activity (% control), preemergence, monocots ([15]; 2 lb./A.): 89%; Herbicidal activity (% control), preemergence, monocots ([15]; 4 lb./A.): 99%
